Source: PubChem BioAssay (NCI)
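Values below derive from 48-hour exposures of cells grown in 96-well plates, with endpoints linearly interpolated between the two concentrations bracketing the appropriate inhibition level. Abbreviation: GI50, concentration required for 50% inhibition of growth. TGI is the concentration that stops growth completely.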

Assays:
Assay in all cases: NCI anticancer screen, dose series, 48 h
COLO 205 colon = system: COLO 205 colon
HCC-2998 colon = system: HCC-2998 colon
SK-MEL-28 melanoma = system: SK-MEL-28 melanoma
SK-MEL-2 melanoma = system: SK-MEL-2 melanoma
SNB-75 CNS = system: SNB-75 CNS
SF-295 CNS = system: SF-295 CNS
A498 renal = system: A498 renal
A549 NSCLC = system: A549 NSCLC
MDA-MB-231 breast = system: MDA-MB-231 breast
HS 578T breast = system: HS 578T breast

## CCOC(=O)NC(=O)c1cn(CCCCCOC(=O)NCCCCCCNC(=O)OCCCCCn2cc(C(=O)NC(=O)OCC)c(=O)[nH]c2=O)c(=O)[nH]c1=O
COLO 205 colon
  TGI: > 100 µM
HCC-2998 colon
  TGI: > 100 µM
SK-MEL-28 melanoma
  TGI: > 100 µM
SK-MEL-2 melanoma
  TGI: > 100 µM
SNB-75 CNS
  TGI: > 100 µM
SF-295 CNS
  TGI: > 100 µM
A498 renal
  TGI: > 100 µM
A549 NSCLC
  TGI: > 100 µM

## CC1(C)CC[C@]2(C(=O)n3ccnc3)CC[C@]3(C)[C@H](C(=O)C=C4[C@@]5(C)C=C(C#N)C(=O)C(C)(C)[C@@H]5CC[C@]43C)[C@@H]2C1
COLO 205 colon
  GI50: 0.0139 µM
  TGI: > 100 µM
HCC-2998 colon
  GI50: < 0.01 µM
  TGI: < 0.01 µM
SK-MEL-28 melanoma
  GI50: < 0.0155 µM
  TGI: 0.0848 µM
SK-MEL-2 melanoma
  GI50: < 0.0336 µM
SNB-75 CNS
  GI50: 0.0236 µM
  TGI: 0.187 µM
SF-295 CNS
  GI50: 0.0152 µM
  TGI: 0.0975 µM
A498 renal
  GI50: 0.112 µM
  TGI: 0.28 µM
A549 NSCLC
  GI50: < 0.0214 µM
MDA-MB-231 breast
  GI50: 0.0184 µM
  TGI: 0.0682 µM

## O=C1NC2OCC(O)C(O1)C2O (stereo not drawn)
COLO 205 colon
  TGI: > 100 µM
SK-MEL-28 melanoma
  TGI: > 100 µM
SK-MEL-2 melanoma
  TGI: > 100 µM
SNB-75 CNS
  TGI: > 100 µM
SF-295 CNS
  TGI: > 100 µM
A498 renal
  TGI: > 100 µM

## Cc1cc(Cl)ccc1NC(=O)/C(Cl)=C(/Cl)C(=O)O
COLO 205 colon
  TGI: 78 µM
HCC-2998 colon
  TGI: 39.3 µM
SK-MEL-28 melanoma
  TGI: 41 µM
HS 578T breast
  TGI: 61.6 µM
SNB-75 CNS
  TGI: > 100 µM
SF-295 CNS
  TGI: > 100 µM
A549 NSCLC
  TGI: > 100 µM
MDA-MB-231 breast
  TGI: 47.8 µM

## CNc1nnnn1C1OC(CO)C(O)C1O (stereo not drawn)
COLO 205 colon
  TGI: > 100 µM
HCC-2998 colon
  TGI: > 100 µM
SK-MEL-2 melanoma
  TGI: > 100 µM
SNB-75 CNS
  TGI: > 100 µM
SF-295 CNS
  TGI: > 100 µM
A498 renal
  TGI: > 100 µM
A549 NSCLC
  TGI: > 100 µM

## CC1(C)CC(=O)C(CC(C(=O)C(=O)Nc2cc(C(F)(F)F)ccc2Cl)C(=O)c2ccco2)C(=O)C1 (stereo not drawn)
COLO 205 colon
  TGI: > 100 µM
HCC-2998 colon
  TGI: > 100 µM
SK-MEL-28 melanoma
  TGI: > 100 µM
HS 578T breast
  TGI: > 100 µM
SK-MEL-2 melanoma
  TGI: > 100 µM
SF-295 CNS
  TGI: > 100 µM
A498 renal
  TGI: > 100 µM
A549 NSCLC
  TGI: > 100 µM
MDA-MB-231 breast
  TGI: > 100 µM

## O=C(CCc1nnc(-c2c(Cl)cccc2Cl)o1)c1nc2ccccc2[nH]1
COLO 205 colon
  GI50: 2.66 µM
  TGI: 7.08 µM
HCC-2998 colon
  GI50: 6.52 µM
  TGI: 32.3 µM
SK-MEL-28 melanoma
  GI50: 12.7 µM
  TGI: 42.7 µM
HS 578T breast
  GI50: 9.71 µM
  TGI: 93.9 µM
SNB-75 CNS
  GI50: 18.7 µM
  TGI: > 100 µM
SF-295 CNS
  GI50: 5.98 µM
  TGI: 42.9 µM
A498 renal
  GI50: 1.53 µM
  TGI: 10.1 µM
A549 NSCLC
  GI50: 10.4 µM
  TGI: > 100 µM
MDA-MB-231 breast
  GI50: 2.68 µM
  TGI: 42.6 µM

## O=C1OC(c2ccccc2)C2CC3CC4(CCC3CN12)OCCO4 (stereo not drawn)
COLO 205 colon
  TGI: > 100 µM
SK-MEL-28 melanoma
  TGI: > 100 µM
SK-MEL-2 melanoma
  TGI: > 100 µM
SNB-75 CNS
  TGI: > 100 µM
SF-295 CNS
  TGI: > 100 µM
A498 renal
  TGI: > 100 µM
A549 NSCLC
  TGI: > 100 µM

## O=C(CC1(O)C(=O)Nc2c(Cl)cccc21)c1ccccc1 (stereo not drawn)
COLO 205 colon
  TGI: > 100 µM
HCC-2998 colon
  TGI: > 100 µM
SK-MEL-28 melanoma
  TGI: > 100 µM
SK-MEL-2 melanoma
  TGI: > 100 µM
SNB-75 CNS
  TGI: > 100 µM
SF-295 CNS
  TGI: > 100 µM
A549 NSCLC
  TGI: > 100 µM

## O=C1C(c2ccc([N+](=O)[O-])cc2)=[N+]([O-])c2ccccc21
COLO 205 colon
  TGI: 30.1 µM
SK-MEL-28 melanoma
  TGI: 77.2 µM
SK-MEL-2 melanoma
  TGI: > 100 µM
SNB-75 CNS
  TGI: 69 µM
SF-295 CNS
  TGI: > 100 µM
A549 NSCLC
  TGI: > 100 µM

## C=CCCC(O)c1ccc(C(O)CCCCCCCCCCCC)o1 (stereo not drawn)
COLO 205 colon
  GI50: 40.5 µM
  TGI: > 100 µM
HCC-2998 colon
  GI50: 21.4 µM
  TGI: 37.2 µM
SK-MEL-28 melanoma
  GI50: 27.1 µM
  TGI: 65.5 µM
HS 578T breast
  GI50: 24.2 µM
  TGI: 55.4 µM
SK-MEL-2 melanoma
  GI50: 28.6 µM
  TGI: 89.4 µM
SNB-75 CNS
  GI50: 33.3 µM
  TGI: > 100 µM
SF-295 CNS
  GI50: 36.7 µM
  TGI: > 100 µM
A549 NSCLC
  GI50: 17.7 µM
  TGI: 39.2 µM
MDA-MB-231 breast
  GI50: 20.1 µM
  TGI: 38.5 µM

## Cc1cc2c(cc1C)N1Cc3c(ccc(C)c3C)N(C2)C1 (tested in a mixture with another compound)
COLO 205 colon
  TGI: > 100 µM
HCC-2998 colon
  TGI: > 100 µM
SK-MEL-28 melanoma
  TGI: > 100 µM
SNB-75 CNS
  TGI: > 100 µM
SF-295 CNS
  TGI: > 100 µM
A549 NSCLC
  TGI: > 100 µM

## COc1ccc(C(=O)C(c2ccc(OC)cc2)C2C(=O)Oc3ccccc32)cc1 (stereo not drawn)
COLO 205 colon
  GI50: > 100 µM
  TGI: > 100 µM
HCC-2998 colon
  GI50: > 100 µM
  TGI: > 100 µM
SK-MEL-28 melanoma
  GI50: > 100 µM
  TGI: > 100 µM
SK-MEL-2 melanoma
  GI50: > 100 µM
  TGI: > 100 µM
SNB-75 CNS
  GI50: > 100 µM
  TGI: > 100 µM
SF-295 CNS
  GI50: > 100 µM
  TGI: > 100 µM
A498 renal
  GI50: > 100 µM
  TGI: > 100 µM
A549 NSCLC
  GI50: > 100 µM
  TGI: > 100 µM

## COc1c(OC(C)=O)c(OC(C)=O)cc2c1-c1ccc(OC)c(=O)cc1C(NC(C)=O)CC2 (stereo not drawn)
COLO 205 colon
  TGI: 0.133 µM
HCC-2998 colon
  TGI: 24.8 µM
SK-MEL-28 melanoma
  TGI: > 100 µM
HS 578T breast
  TGI: > 100 µM
SK-MEL-2 melanoma
  TGI: 9.38 µM
SF-295 CNS
  TGI: 0.564 µM
A498 renal
  TGI: 2.48 µM
A549 NSCLC
  TGI: > 100 µM
MDA-MB-231 breast
  TGI: > 100 µM

## CC1(C)CC(=O)C(C(c2cccc(O)c2O)C2C(=O)CC(C)(C)CC2=O)C(=O)C1
COLO 205 colon
  TGI: > 100 µM
SK-MEL-28 melanoma
  TGI: > 100 µM
HS 578T breast
  TGI: > 100 µM
SK-MEL-2 melanoma
  TGI: > 100 µM
SNB-75 CNS
  TGI: > 100 µM
SF-295 CNS
  TGI: > 100 µM
A498 renal
  TGI: > 100 µM
A549 NSCLC
  TGI: > 100 µM
MDA-MB-231 breast
  TGI: > 100 µM

## N#Cc1ccc(/C=N\N2C(=O)c3ccccc3C2=O)cc1
HCC-2998 colon
  TGI: > 100 µM
SK-MEL-28 melanoma
  TGI: > 100 µM
SK-MEL-2 melanoma
  TGI: > 100 µM
SNB-75 CNS
  TGI: > 100 µM
SF-295 CNS
  TGI: > 100 µM
A498 renal
  TGI: > 100 µM
A549 NSCLC
  TGI: > 100 µM

## O=C(CCCCC(=O)N/N=C\c1ccccc1Cl)N/N=C\c1ccccc1Cl
COLO 205 colon
  GI50: 2.91 µM
  TGI: > 100 µM
SK-MEL-28 melanoma
  GI50: 61.3 µM
  TGI: > 100 µM
HS 578T breast
  GI50: 2.02 µM
  TGI: 49 µM
SK-MEL-2 melanoma
  GI50: 12.5 µM
  TGI: 33.9 µM
SNB-75 CNS
  GI50: 12.7 µM
  TGI: 32.9 µM
SF-295 CNS
  GI50: 0.539 µM
  TGI: 44.4 µM
A498 renal
  GI50: 3.13 µM
  TGI: 38.1 µM
A549 NSCLC
  GI50: 1.77 µM
  TGI: > 100 µM
MDA-MB-231 breast
  GI50: 12.5 µM
  TGI: 55.7 µM

## CN(C)CCCNC(=O)c1cc(NC(=O)CCNC(=O)c2ccc3c(c2)C(=O)c2ccccc2C3=O)cn1C
COLO 205 colon
  GI50: 33.9 µM
  TGI: > 100 µM
HCC-2998 colon
  GI50: 52.7 µM
  TGI: > 100 µM
HS 578T breast
  GI50: > 100 µM
  TGI: > 100 µM
SK-MEL-2 melanoma
  GI50: > 100 µM
  TGI: > 100 µM
SF-295 CNS
  GI50: > 100 µM
  TGI: > 100 µM
A498 renal
  GI50: > 100 µM
  TGI: > 100 µM
A549 NSCLC
  GI50: > 100 µM
  TGI: > 100 µM
MDA-MB-231 breast
  GI50: > 100 µM
  TGI: > 100 µM

## O=c1oc2c3ccc4ccccc4c3n(CCN3CCOCC3)c2c2ccccc12
COLO 205 colon
  TGI: > 100 µM
HCC-2998 colon
  TGI: > 100 µM
SK-MEL-28 melanoma
  TGI: > 100 µM
SNB-75 CNS
  TGI: > 100 µM
SF-295 CNS
  TGI: > 100 µM
A549 NSCLC
  TGI: > 100 µM

## O=c1cc2n(c(=O)[nH]1)C1OC(C(O)C1O)[C@H]2CCO (stereo partly drawn)
COLO 205 colon
  TGI: > 100 µM
SK-MEL-28 melanoma
  TGI: > 100 µM
SK-MEL-2 melanoma
  TGI: > 100 µM
SF-295 CNS
  TGI: > 100 µM
A498 renal
  TGI: > 100 µM
A549 NSCLC
  TGI: > 100 µM
